Measured values as given in patent US8003375B2, “Qualitative differential screening” (ExonHit Therapeutics S.A., priority 1998, dated 2011).
Each block holds one compound with its values, some of them ahead of it.

Columns and labels:
HepG2 cells [1] = experiment: Cytotoxicity tests (trypan blue, MTT) and apoptosis test (Cell Death ELISA, DNA fragmentation) on HepG2 cells
Protocol: (§1) The effects of toxic compounds on RNA splicing regulation defects were tested as follows. HepG2 hepatocyte cells were treated with different doses of three toxic compounds (ethanol, camptothecin, PMA (phorbol 12-myristate 13-acetate)). Two cytotoxicity tests (trypan blue, MTT) were performed at different time points: 4 h and 18 h for ethanol; 4 h and 18 h for camptothecin; 18 h and 40 h for PMA.
(§2) Trypan blue is a dye that can be incorporated by […] cells. […] The experimental points are determined in triplicate.
(§3) The MTT test is a colorimetric test measuring the capacity of living cells to convert soluble tetrazolium salts (MTT) into an insoluble formazan precipitate. These dark blue formazan crystals can be dissolved and their concentration determined by measuring absorbance at 550 nm. Thus, after overnight seeding of 24-well dishes with 150,000 cells, followed by treatment of the cells with the toxic compounds, 50 μl of MTT (Sigma) are added (at a concentration of 5 mg/ml in PBS). The formazan crystal formation reaction is carried out for 5 h in a CO2 incubator (37° C., 5% CO2, 95% humidity). After addition of 500 μl of solubilization solution (0.1 N HCl in isopropanol-Triton X-100 (10%)), the crystals are dissolved with stirring and their absorbance is measured at 550 to 660 nm. Determinations are done in triplicate with suitable controls (viability, cell death, blanks).
(§4) A test of apoptosis or programmed cell death was also performed by measuring DNA fragmentation with an anti-histone antibody and ELISA. The Cell Death ELISA Plus from Roche was used.

[2] = as above; details: human
Protocol: as §1, §2, §3, §4

[3] = system: MACH-α (Caspase-8) isoforms; experiment: RT-PCR of MACH-α isoforms in treated HepG2 cells; format: cell-based, human; details: camptothecin 1 μg/ml, 4 h, RT-PCR (FIG. 19)
Protocol: HepG2 cells were thus treated with these three concentrations of these three compounds for 4 h in the case of ethanol and camptothecin and for 18 h in the case of PMA. Messenger RNAs were purified on Dynal-Oligo-(dT) beads starting from total RNAs purified with the Rneasy kit (Quiagen). cDNA was synthesized from these messenger RNAs using Superscript reverse transcriptase (Life Technologies) and random hexamers as primers
These initial strands served as templates for PCR amplification reactions (94° C. 1 min, 55° C. 1 min, 72° C. 1 min, 30 cycles) by means of the following oligonucleotide primers: […]
These primers correspond to the regions common to the different described isoforms of MACH-α (1, 2 and 3, respectively amplifying 595, 550 and 343 base pairs). MACH-α (Caspase-8) is a protease involved in programmed cell death (Boldin et al., (1996), Cell, 85: 803-815).

bcl-X isoforms = experiment: RT-PCR of BCL-X isoforms in treated HepG2 cells; format: cell-based, human; details: 4 h, RT-PCR (FIG. 19)
Protocol: (§5) HepG2 cells were thus treated with these three concentrations of these three compounds for 4 h in the case of ethanol and camptothecin and for 18 h in the case of PMA. […] These initial strands served as templates for PCR amplification reactions (94° C. 1 min, 55° C. 1 min, 72° C. 1 min, 30 cycles) by means of the following oligonucleotide primers: [table] These primers correspond to the regions common to the different described isoforms of bcl-X (bcl-XI, bcl-Xs, BCL-Xβ) (Boise et al., (1993), Cell 74: 597-608; U72398 (Genbank)) and should amplify a single 204 base pair fragment for these three isoforms.

FASR isoforms = experiment: RT-PCR of FASR isoforms in treated HepG2 cells; format: cell-based, human; details: 4 h, RT-PCR (FIG. 19)
Protocol: as §5, with “certain FASR” for “the different described”, “isoforms” for “isoforms of bcl-X (bcl-XI, bcl-Xs, BCL-Xβ) (Boise et al., (1993), Cell 74: 597-608; U72398 (Genbank))”, “478” for “single 204”, “wild type form FasR, 452 base pairs for isoform Δ8 and 415 for isoform ΔTM.” for “these three isoforms.”

HepG2 cells [4] = details: 0.1 M ethanol for 18 hours (FIG. 9)
Description: A more complex situation was examined. […] RNAs were extracted from cells that were or were not subjected to treatment. The aforementioned DATAS variant (preparation of biotinylated ss cDNA, cross hybridizations in liquid phase, application of a magnetic field to separate the species, RNase H digestion) was effected with untreated cells in the reference condition (or condition A) and with treated cells in the test condition (or condition B) (FIG. 9). As the extracted RNAs were not radiolabeled, the RNAs generated by RNase H digestion were visualized by carrying out an exchange reaction to replace the RNA 5′ phosphate with a labeled phosphate, by means of T4 polynucleotide kinase and gamma-P^32ATP. These labeled products were then loaded on an acrylamide/urea gel and analyzed by exposure using an Instant Imager (Packard Instruments).

SMILES: CCCCCCCCCCCCCC(=O)O[C@@H]1[C@@H](C)[C@@]2(O)[C@@H](C=C(CO)C[C@]3(O)C(=O)C(C)=C[C@@H]23)[C@@H]2C(C)(C)[C@]12OC(C)=O [PMA, phorbol 12-myristate 13-acetate]
IC50 in cytotoxicity and apoptosis tests (HepG2 cells [1]; HepG2 cells, trypan blue, MTT, Cell Death ELISA, 18 h and 40 h, stated concentration well below measured IC50): > 0.05 µg/mL

SMILES: CC[C@@]1(O)C(=O)OCc2c1cc1n(c2=O)Cc2cc3ccccc3nc2-1 [camptothecin]
IC50 ([2]; HepG2 hepatocyte cells): > 1 µg/mL
expression of isoform MACH-α1 [3]: decrease
expression of isoform MACH-α3 [3]: increase
bcl-X isoform pattern (bcl-X isoforms; camptothecin 1 μg/ml): induces the appearance of a new bcl-X isoform
fas receptor isoform pattern (FASR isoforms; camptothecin 1 μg/ml): induces a decrease in the wild type form of the fas receptor, replaced by expression of a shorter isoform which may correspond to Fas ΔTM

IC50 [2]: > 100 mM
SMILES: CCO [ethanol]
cytotoxicity and DNA degradation (HepG2 cells [1]): signs of cytotoxicity and DNA degradation via internucleosomal fragmentation
bcl-X isoform pattern (bcl-X isoforms; ethanol 0.1 M): induces the disappearance of bcl-x which is replaced by a shorter isoform
fas receptor isoform pattern (FASR isoforms; ethanol 0.1 M): induces an increase in the long wild type form of the fas receptor at the expense of the shorter isoform
RNA splicing signatures (A/B and B/A signals versus A/A) (HepG2 cells [4]): can induce a reprogramming of RNA splicing events
